According to ChEMBL document CHEMBL5500393, “Discovery and Optimization of Novel SaFabI Inhibitors as Specific Therapeutic Agents for MRSA Infection” (J Med Chem, 2024):
In brackets after ≈: the same amount, converted by molar mass. Activity calls are given as the source filed them. The calls are words filed in the database; no cut-off is given here.

How the values were obtained:
[1] = test system: Staphylococcus aureus; test: Antimicrobial activity against […] Staphylococcus aureus ATCC33591 assessed as reduction in DNA content measured after 4 hrs by microplate reader based analysis; format: functional
[2] = test system: Staphylococcus aureus; test: Antimicrobial activity against […] Staphylococcus aureus USA300 measured after 24 hrs by CLSI protocol based microdilution method; format: functional
[3] = test system: Staphylococcus aureus; test: Antimicrobial activity against […] Staphylococcus aureus NRS271 measured after 24 hrs by CLSI protocol based microdilution method; format: functional
[4] = test system: Enterococcus faecium; test: Antimicrobial activity against Enterococcus faecium ATCC19434 measured after 24 hrs by CLSI protocol based microdilution method; format: functional
[5] = test system: Pseudomonas aeruginosa; test: Antimicrobial activity against Pseudomonas aeruginosa PAO1 measured after 24 hrs by CLSI protocol based microdilution method; format: functional
[6] = test system: Escherichia coli; test: Antimicrobial activity against Escherichia coli ATCC25922 measured after 24 hrs by CLSI protocol based microdilution method; format: functional
[7] = test system: Acinetobacter baumannii; test: Antimicrobial activity against Acinetobacter baumannii ATCC19606 measured after 24 hrs by CLSI protocol based microdilution method; format: functional
[8] = test system: Candida albicans; test: Antimicrobial activity against Candida albicans SC5314 measured after 48 hrs by CLSI protocol based microdilution method; format: functional
[9] = test system: Staphylococcus aureus; test: In vivo antibacterial activity against methicilin-resistant Staphylococcus aureus ATCC33591 infected in BALB/c mouse skin infection model assessed as decrease in lesion size at 10 mg/kg administered daily for 4 days (reference value: 43.4 mm2); format: functional; details: time 4 day
[10] = test system: Staphylococcus aureus; test: In vivo antibacterial activity against methicilin-resistant Staphylococcus aureus ATCC33591 infected in BALB/c mouse skin infection model assessed as reduction in area of injury at 20 mg/kg administered daily for 4 days by H and E staining based analysis; format: functional, organism-based; details: time 4.0 day
[11] = test system: Staphylococcus aureus; test: In vivo antibacterial activity against methicilin-resistant Staphylococcus aureus ATCC33591 infected in BALB/c mouse skin infection model assessed as reduction in number of inflammatory cells at 20 mg/kg administered daily for 4 days by H and E staining based analysis; format: functional, organism-based; details: time 4.0 day
[12] = test system: Staphylococcus aureus; test: In vivo antibacterial activity against methicilin-resistant Staphylococcus aureus ATCC33591 infected in BALB/c mouse skin infection model assessed as restoration of cell morphology at 20 mg/kg administered daily for 4 days by H and E staining based analysis; format: functional, organism-based; details: time 4.0 day
[13] = molecular target: T1, Enoyl-[acyl-carrier-protein] reductase [NADPH] FabI (Staphylococcus aureus) (UniProt Q6GI75); test: Inhibition of N-terminal his 6 tagged Staphylococcus aureus Fabi (1 to […] residues) expressed in Escherichia coli BL21 at 10 uM incubated for 30 mins in presence of NADPH by fluorescence based microplate reader analysis relative to control
T1 sequence (whole entry): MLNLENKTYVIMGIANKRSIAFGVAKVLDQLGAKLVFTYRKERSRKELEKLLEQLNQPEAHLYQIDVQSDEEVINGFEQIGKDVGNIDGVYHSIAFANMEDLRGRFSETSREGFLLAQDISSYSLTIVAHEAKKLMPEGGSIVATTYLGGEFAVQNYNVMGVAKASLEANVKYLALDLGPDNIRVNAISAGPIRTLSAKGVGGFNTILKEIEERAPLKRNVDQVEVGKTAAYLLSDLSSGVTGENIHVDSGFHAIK

[14] = molecular target: T1, Enoyl-[acyl-carrier-protein] reductase [NADPH] FabI (Staphylococcus aureus); test: Inhibition of N-terminal his 6 tagged Staphylococcus aureus Fabi (1 to […] residues) expressed in Escherichia coli BL21 at 1 uM incubated for 30 mins in presence of NADPH by fluorescence based microplate reader analysis relative to control
[15] = molecular target: T2, Enoyl-[acyl-carrier-protein] reductase [NADPH] FabI (Staphylococcus aureus, UniProt Q6GI75); test: Inhibition of N-terminal his 6 tagged Staphylococcus aureus Fabi (1 to […] residues) expressed in Escherichia coli BL21 incubated for 30 mins in presence of NADPH by fluorescence based microplate reader analysis
T2 sequence (Q6GI75 whole entry): T1 sequence (whole entry)

[16] = molecular target: T1, Enoyl-[acyl-carrier-protein] reductase [NADPH] FabI (Staphylococcus aureus); test: Inhibition of N-terminal his 6 tagged Staphylococcus aureus Fabi (1 to […] residues) expressed in Escherichia coli BL21 at 2.5 uM incubated for 30 mins in presence of NADPH by fluorescence based microplate reader analysis relative to control
[17] = test system: Staphylococcus aureus; test: Antimicrobial activity against […] Staphylococcus aureus ATCC33591 measured after 24 hrs by CLSI protocol based microdilution method; format: functional
[18] = test system: Staphylococcus aureus; test: Antimicrobial activity against […] Staphylococcus aureus ATCC43300 measured after 24 hrs by CLSI protocol based microdilution method; format: functional
[19] = test system: Staphylococcus aureus; test: Antimicrobial activity against methicillin-susceptible Staphylococcus aureus ATCC29213 measured after 24 hrs by CLSI protocol based microdilution method; format: functional
[20] = test system: Staphylococcus aureus; test: Antimicrobial activity against methicillin-susceptible Staphylococcus aureus ATCC25923 measured after 24 hrs by CLSI protocol based microdilution method; format: functional
[21] = test system: Enterococcus faecalis; test: Antimicrobial activity against Enterococcus faecalis ATCC29212 measured after 24 hrs by CLSI protocol based microdilution method; format: functional
[22] = Inhibition of N-terminal his 6 tagged Escherichia coli Fabi (1 to 789 residues) expressed in Escherichia coli BL21 incubated for 30 mins in presence of NADH by fluorescence based microplate reader analysis
[23] = Inhibition of N-terminal his 6 tagged Acinetobacter baumannii Fabi (1 to 804 residues) expressed in Escherichia coli BL21 incubated for 30 mins in presence of NADH by fluorescence based microplate reader analysis
[24] = Cytotoxicity against HEK293 cells assessed as survival rate at 400 uM measured after 48 hrs by CCK-8 method relative to control; format: toxicity, cell-based; details: human, read-out: Survival
[25] = test system: HepG2; test: Cytotoxicity against human HepG2 cells assessed as survival rate at 400 uM measured after 48 hrs by CCK-8 method relative to control; format: functional; details: read-out: Survival
[26] = Cytotoxicity against HEK293 cells assessed as survival rate at 800 uM measured after 48 hrs by CCK-8 method relative to control; format: toxicity, cell-based; details: human, read-out: Survival
[27] = test system: HepG2; test: Cytotoxicity against human HepG2 cells assessed as survival rate at 800 uM measured after 48 hrs by CCK-8 method relative to control; format: functional; details: read-out: Survival
[28] = Hemolytic activity in sheep erythrocytes assessed as hemolysis at 64 ug/ml incubated for 1 hr by microplate reader based analysis relative to control; format: toxicity, cell-based, Ovis aries, Erythrocyte; details: at 64 µg/mL, read-out: Activity
[29] = Hemolytic activity in sheep erythrocytes assessed as hemolysis at 128 ug/ml incubated for 1 hr by microplate reader based analysis relative to control; format: toxicity, cell-based, Ovis aries, Erythrocyte; details: at 128 µg/mL, read-out: Activity
[30] = Hemolytic activity in sheep erythrocytes assessed as hemolysis at 256 ug/ml incubated for 1 hr by microplate reader based analysis relative to control; format: toxicity, cell-based, Ovis aries, Erythrocyte; details: at 256 µg/mL, read-out: Activity
[31] = Hemolytic activity in sheep erythrocytes assessed as hemolysis incubated for 1 hr by microplate reader based analysis; format: toxicity, cell-based, Ovis aries, Erythrocyte
[32] = test system: Staphylococcus aureus; test: Antimicrobial activity against Staphylococcus aureus measured after 24 hrs by CLSI protocol based microdilution method; format: functional
[33] = Selectivity index, ratio of HC50 for sheep erythrocytes to MIC for Staphylococcus aureus; format: toxicity; details: read-out: Selectivity Index

Work on `C[C@H]1COc2c(N3CCN(C)CC3)c(F)cc3c(=O)c(C(=O)O)cn1c23` [LEVOFLOXACIN ANHYDROUS] yielded an MIC [1] of 1 µg/mL (≈ 2.77 µM).
In the case of `CC(=O)NC[C@H]1CN(c2ccc(N3CCOCC3)c(F)c2)C(=O)O1` [LINEZOLID], the MIC [2] is reported as 1 µg/mL (≈ 2.96 µM), the MIC [3] is reported as > 32 µg/mL and the MIC [4] is reported as 2 µg/mL (≈ 5.93 µM). The MIC [5] was > 32 µg/mL, the MIC [6] was > 32 µg/mL and the MIC [7] was > 32 µg/mL. The MIC [8] was > 32 µg/mL, the Activity [9] was 25.7 mm2 and the Activity [10] was “inactive”. The Activity [11] was “inactive” and the Activity [12] was “inactive”.
Molecule `Cc1cccc(N2CC(c3nc4ccccc4n3C)CC2=O)c1C` (configuration not stated) has an inhibition [13] of 95.7%, an inhibition [14] of 53.1% and an IC50 [15] of 977 nM. It also gave an inhibition [16] of 76.8%, an MIC [17] of 8 µg/mL (≈ 25 µM) and an MIC [18] of 16 µg/mL (≈ 50.1 µM). It also gave an MIC [2] of 16 µg/mL (≈ 50.1 µM), an MIC [3] of 16 µg/mL (≈ 50.1 µM) and an MIC [19] of 8 µg/mL (≈ 25 µM). For the same molecule, the MIC [20] was 8 µg/mL (≈ 25 µM), the MIC [4] was > 32 µg/mL and the MIC [21] was > 32 µg/mL. The MIC [5] was > 32 µg/mL, the MIC [6] was > 32 µg/mL and the MIC [7] was > 32 µg/mL. The MIC [8] was > 32 µg/mL.
In the case of `CCn1c(C2CC(=O)N(c3cccc(Br)c3C)C2)nc2ccccc21` (configuration not stated), the inhibition [13] is reported as 96.3%, the inhibition [14] is reported as 82.5% and the IC50 [15] is reported as 342 nM. For the same molecule, the IC50 [22] was 35.9 nM, the IC50 [23] was 266 nM and the MIC [17] was 1 µg/mL (≈ 2.51 µM). For the same molecule, the MIC [18] was 2 µg/mL (≈ 5.02 µM), the MIC [2] was 1 µg/mL (≈ 2.51 µM) and the MIC [3] was 2 µg/mL (≈ 5.02 µM). For the same molecule, the MIC [19] was 2 µg/mL (≈ 5.02 µM), the MIC [20] was 2 µg/mL (≈ 5.02 µM) and the MIC [4] was > 32 µg/mL. The MIC [21] was > 32 µg/mL, the MIC [5] was > 32 µg/mL and the MIC [6] was > 32 µg/mL. The MIC [7] was > 32 µg/mL, the MIC [8] was > 32 µg/mL and the viability at 48 h, 400 µM [24] was > 70%. The viability at 400 µM [25] was > 70%, the viability at 48 h, 800 µM [26] was > 65% and the viability at 800 µM [27] was > 65%. For the same molecule, the hemolysis at 1 h, 64 ug/ml [28] was 4.3%, the hemolysis at 1 h, 128 ug/ml [29] was 7.5% and the hemolysis at 1 h, 256 ug/ml [30] was 12.7%. For the same molecule, the HC50 at 1 h [31] was > 256 µg/mL, the MIC [32] was 1 µg/mL (≈ 2.51 µM) and the selectivity ratio [33] was > 128.
With `Cn1c(C2CC(=O)N(c3cccc(Cl)c3Cl)C2)nc2ccccc21` (configuration not stated) the inhibition [13] was 98.8%, the inhibition [14] was 73.7% and the IC50 [15] was 495 nM. It also gave an IC50 [22] of 35.9 nM, an IC50 [23] of 266 nM and an MIC [17] of 4 µg/mL (≈ 11.1 µM). It also gave an MIC [18] of 2 µg/mL (≈ 5.55 µM), an MIC [2] of 2 µg/mL (≈ 5.55 µM) and an MIC [3] of 4 µg/mL (≈ 11.1 µM). For the same molecule, the MIC [19] was 2 µg/mL (≈ 5.55 µM), the MIC [20] was 2 µg/mL (≈ 5.55 µM) and the MIC [4] was > 32 µg/mL. The MIC [21] was > 32 µg/mL, the MIC [5] was > 32 µg/mL and the MIC [6] was > 32 µg/mL. For the same molecule, the MIC [7] was > 32 µg/mL, the MIC [8] was > 32 µg/mL and the viability at 48 h, 400 µM [24] was > 70%. For the same molecule, the viability at 400 µM [25] was > 70%, the viability at 48 h, 800 µM [26] was > 75% and the viability at 800 µM [27] was > 75%. It also gave a hemolysis at 1 h, 64 ug/ml [28] of 2.4%, a hemolysis at 1 h, 128 ug/ml [29] of 4.3% and a hemolysis at 1 h, 256 ug/ml [30] of 7.5%. For the same molecule, the HC50 at 1 h [31] was > 256 µg/mL, the MIC [32] was 2 µg/mL (≈ 5.55 µM) and the selectivity ratio [33] was > 64.
